23 molecules from patent US9718828B2 (MERCK SHARP & DOHME CORP., priority 2011, dated 2017) can be followed below.

Bounds are passed on as bounds.

T1 sequence (Q06187 whole entry): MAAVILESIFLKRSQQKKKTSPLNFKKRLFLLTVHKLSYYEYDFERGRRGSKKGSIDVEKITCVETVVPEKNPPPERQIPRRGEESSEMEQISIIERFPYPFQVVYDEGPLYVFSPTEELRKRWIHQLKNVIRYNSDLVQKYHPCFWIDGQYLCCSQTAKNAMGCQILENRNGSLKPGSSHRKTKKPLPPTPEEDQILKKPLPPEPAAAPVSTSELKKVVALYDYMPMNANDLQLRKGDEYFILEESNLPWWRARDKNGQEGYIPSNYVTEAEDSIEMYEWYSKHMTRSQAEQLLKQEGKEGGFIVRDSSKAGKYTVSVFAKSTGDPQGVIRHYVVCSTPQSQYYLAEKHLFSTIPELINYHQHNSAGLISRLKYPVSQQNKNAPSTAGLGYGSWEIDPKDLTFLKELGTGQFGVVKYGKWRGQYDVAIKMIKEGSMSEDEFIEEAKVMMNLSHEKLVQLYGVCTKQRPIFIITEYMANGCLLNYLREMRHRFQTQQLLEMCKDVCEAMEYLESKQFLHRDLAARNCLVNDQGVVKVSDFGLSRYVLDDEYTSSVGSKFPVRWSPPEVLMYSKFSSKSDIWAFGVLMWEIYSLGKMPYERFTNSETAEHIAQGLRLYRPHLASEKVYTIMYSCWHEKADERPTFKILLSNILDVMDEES

The first assay addresses T1, hBTK (full-length BTK, 6HIS-tag cleaved) (Homo sapiens (Human), UniProt Q06187). Briefly: BTK enzymatic activity, IMAP-FP assay (Assay Method B). It counts as biochemical.
Conditions: not given
The method, then: BTK enzymatic activity was determined in an IMAP-FP assay (Immobilized Metal ion Affinity-based fluorescence Polarization; Molecular Devices). […] Phosphorylation reactions were allowed to proceed for 120 minutes and were immediately quenched by the addition of 40 μL IMAP detection beads resuspended in IMAP progressive binding buffer (beads were diluted 1:600 in 75% and 25% progressive binding buffer A and B, respectively; Molecular Devices). Plates were read on Packard microplate reader after 60 minutes binding equilibration using Fluorescence Polarization protocol.
For orientation: IC50 means the concentration at which inhibition is half-maximal. Molecule `CCc1ccnc(NC(=O)c2ccc(-c3cn([C@@H]4CCCN(C(=O)C5(C)COC5)C4)c4ncnc(N)c34)cc2)c1` [Example 391, 4-(4-amino-7-{(3R)-1-[(3-methyloxetan-3-yl)carbonyl]piperidin-3-yl}-7H-pyrrolo[2,3-d]pyrimidin-5-yl)-N-(4-ethylpyridin-2-yl)benzamide] showed an IC50 of 10 to 100 nM.

Still in this assay, the particulars now being: IMAP-FP, 1.05 nM hBTK, 5 μM ATP; class 100-1000 is given as ≧100 nM-<1 μM; read-out: IC50 Btk activity values - Assay Method B.
Consider `Cc1cc(-c2nc([C@@H]3CCCN(C(=O)C4(C)COC4)C3)n3ccnc(N)c23)ccc1C(=O)Nc1cc(C(F)(F)F)ccn1` [Example 474, 4-(8-amino-3-{(3R)-1-[(3-methyloxetan-3-yl)carbonyl]piperidin-3-yl}imidazo[1,5-a]pyrazin-1-yl)-2-methyl-N-[4-(trifluoromethyl)pyridin-2-yl]benzamide], for which the IC50 was 10 to 100 nM. Regarding `COc1ccnc(NC(=O)c2ccc(-c3nc([C@@H]4CC[C@H](C)N(C(=O)C5(C)COC5)C4)n4ccnc(N)c34)cc2)c1` [Example 403, 4-(8-amino-3-{(3R,6S)-6-methyl-1-[(3-methyloxetan-3-yl)carbonyl]piperidin-3-yl}imidazo[1,5-a]pyrazin-1-yl)-N-(4-methoxypyridin-2-yl)benzamide], the IC50 is < 10 nM. Still for that read-out and setting: the result for `C[C@@H]1C[C@@H](c2nc(-c3ccc(C(=O)Nc4cc(C(F)(F)F)ccn4)cc3)c3c(N)nccn23)CN(C(=O)C2(C)COC2)C1` [Example 375, 4-(8-amino-3-{(3R,5R)-5-methyl-1-[(3-methyloxetan-3-yl)carbonyl]piperidin-3-yl}imidazo[1,5-a]pyrazin-1-yl)-N-[4-(trifluoromethyl)pyridin-2-yl]benzamide] reads 10 to 100 nM; that for `Nc1nccn2c([C@H]3CN(C(=O)C4(N)CCC4)CCO3)nc(-c3ccc(C(=O)Nc4cc(C(F)(F)F)ccn4)cc3)c12` [Example 499, 4-(8-amino-3-{(2R)-4-[(1-aminocyclobutyl)carbonyl]morpholin-2-yl}imidazo[1,5-a]pyrazin-1-yl)-N-[4-(trifluoromethyl)pyridin-2-yl]benzamide], 10 to 100 nM. `CCN1C[C@@H](c2nc(-c3ccc(C(=O)Nc4cc(C(F)(F)F)ccn4)cc3)c3c(N)nccn23)CC[C@@H]1C(F)(F)F` [Example 406, 4-{8-amino-3-[(3S,6R)-1-ethyl-6-(trifluoromethyl)piperidin-3-yl]imidazo[1,5-a]pyrazin-1-yl}-N-[4-(trifluoromethyl)pyridin-2-yl]benzamide]: the IC50 was in the range of 10 to 100 nM. Same read-out and setting: for `CC1(C(=O)N2CCC[C@@H](n3cc(-c4ccc(C(=O)Nc5cc(C#N)ccn5)cc4)c4c(N)ncnc43)C2)COC1` [Example 390, 4-(4-amino-7-{(3R)-1-[(3-methyloxetan-3-yl)carbonyl]piperidin-3-yl}-7H-pyrrolo[2,3-d]pyrimidin-5-yl)-N-(4-cyanopyridin-2-yl)benzamide] the value was 10 to 100 nM; for `C[C@H]1C[C@@H](c2nc(-c3ccc(C(=O)Nc4cc(C(F)(F)F)ccn4)cc3)c3c(N)nccn23)CN(C(=O)C2(C)COC2)C1` [Example 374, 4-(8-amino-3-{(3R,5S)-5-methyl-1-[(3-methyloxetan-3-yl)carbonyl]piperidin-3-yl}imidazo[1,5-a]pyrazin-1-yl)-N-[4-(trifluoromethyl)pyridin-2-yl]benzamide], < 10 nM; for `Cc1ccnc(NC(=O)c2ccc(-c3nc([C@@H]4CC[C@H](C)N(C(=O)C5(C)COC5)C4)n4ccnc(N)c34)cc2)c1` [Example 402, 4-(8-amino-3-{(3R,6S)-6-methyl-1-[(3-methyloxetan-3-yl)carbonyl]piperidin-3-yl}imidazo[1,5-a]pyrazin-1-yl)-N-(4-methylpyridin-2-yl)benzamide], < 10 nM.

Regarding `CN1CCN(C)[C@@H](c2nc(-c3ccc(C(=O)Nc4cc(C(F)(F)F)ccn4)cc3)c3c(N)nccn23)C1` [Example 565, 4-{8-amino-3-[(2R)-1,4-dimethylpiperazin-2-yl]imidazo[1,5-a]pyrazin-1-yl}-N-[4-(trifluoromethyl)pyridin-2-yl]benzamide], the IC50 is 100 to 1000 nM. Same read-out and setting: the result for `C[C@@H]1CCN(C(=O)C2(C)COC2)C[C@@H]1c1nc(-c2ccc(C(=O)Nc3cc(C(F)(F)F)ccn3)cc2)c2c(N)nccn12` [Example 377, 4-(8-amino-3-{(3R,4R)-4-methyl-1-[(3-methyloxetan-3-yl)carbonyl]piperidin-3-yl}imidazo[1,5-a]pyrazin-1-yl)-N-[4-(trifluoromethyl)pyridin-2-yl]benzamide] reads 100 to 1000 nM; that for `COc1cc(C(=O)Nc2cc(C(F)(F)F)ccn2)ccc1-c1nc([C@@H]2CC[C@H](C)N(C(=O)C3(C)COC3)C2)n2ccnc(N)c12` [Example 401, 4-(8-amino-3-{(3R,6S)-6-methyl-1-[(3-methyloxetan-3-yl)carbonyl]piperidin-3-yl}imidazo[1,5-a]pyrazin-1-yl)-3-methoxy-N-[4-(trifluoromethyl)pyridin-2-yl]benzamide], < 10 nM; that for `C[C@H]1CCN(C(=O)C2(C)COC2)C[C@@H]1c1nc(-c2ccc(C(=O)Nc3cc(C(F)(F)F)ccn3)cc2)c2c(N)nccn12` [Example 378, 4-(8-amino-3-{(3R,4S)-4-methyl-1-[(3-methyloxetan-3-yl)carbonyl]piperidin-3-yl}imidazo[1,5-a]pyrazin-1-yl)-N-[4-(trifluoromethyl)pyridin-2-yl]benzamide], 10 to 100 nM.

As to `CCOc1ccnc(NC(=O)c2ccc(-c3nc([C@@H]4CC[C@H](C)N(C(=O)C5(C)COC5)C4)n4ccnc(N)c34)cc2)c1` [Example 404, 4-(8-amino-3-{(3R,6S)-6-methyl-1-[(3-methyloxetan-3-yl)carbonyl]piperidin-3-yl}imidazo[1,5-a]pyrazin-1-yl)-N-(4-ethoxypyridin-2-yl)benzamide], the IC50 is < 10 nM. As for `COCC1(C(=O)N2CCO[C@@H](c3nc(-c4ccc(C(=O)Nc5cc(C(F)(F)F)ccn5)cc4)c4c(N)nccn34)C2)CCC1` [Example 500, 4-{8-amino-3-[(2R)-4-{[1-(methoxymethyl)cyclobutyl]carbonyl}morpholin-2-yl]imidazo[1,5-a]pyrazin-1-yl}-N-[4-(trifluoromethyl)pyridin-2-yl]benzamide], the IC50 was 10 to 100 nM.

For the next assay, the target named is T1, hBTK (full-length BTK, 6HIS-tag cleaved). Kind of assay: BTK enzymatic activity, LANCE TR-FRET assay (Assay Method C). It counts as biochemical. The following applies: LANCE TR-FRET, 50 pM hBTK, 25 μM ATP; class 100-1000 is given as ≧100 nM-<1 μM; read-out: IC50 Btk activity values - Assay Method C. On the technique in general: In TR-FRET formats the signal depends on donor and acceptor labels being close together.
For the molecule `CCC(=O)N1CCC[C@@H](c2nc(-c3ccc(C(=O)Nc4cc(C(F)(F)F)ccn4)cc3OC)c3c(N)nccn23)C1` [Example 490, 4-{8-amino-3-[(3R)-1-propanoylpiperidin-3-yl]imidazo[1,5-a]pyrazin-1-yl}-3-methoxy-N-[4-(trifluoromethyl)pyridin-2-yl]benzamide], the IC50 is < 10 nM.

As to `Cc1ccnc(NC(=O)c2ccc(-c3nc([C@@H]4CCCN(C(=O)C5(C)COC5)C4)n4c(Cl)cnc(N)c34)c(F)c2)c1` [Example 448, 4-(8-amino-5-chloro-3-{(3R)-1-[(3-methyloxetan-3-yl)carbonyl]piperidin-3-yl}imidazo[1,5-a]pyrazin-1-yl)-3-fluoro-N-(4-methylpyridin-2-yl)benzamide], the IC50 is < 10 nM. In the case of `CN1C[C@@H](c2nc(-c3ccc(C(=O)Nc4cc(C(F)(F)F)ccn4)cc3F)c3c(N)nccn23)CC[C@@H]1C(F)(F)F` [Example 411, 4-{8-amino-3-[(3S,6R)-1-methyl-6-(trifluoromethyl)piperidin-3-yl]imidazo[1,5-a]pyrazin-1-yl}-3-fluoro-N-[4-(trifluoromethyl)pyridin-2-yl]benzamide], the IC50 is < 10 nM. Still for that read-out and setting: the result for `Cc1cnc(N)c2c(-c3ccc(C(=O)Nc4cc(C(F)(F)F)ccn4)cc3)nc([C@H]3CN(C(=O)[C@@H](C)O)CCO3)n12` [Example 544, 4-(8-amino-3-{(2R)-4-[(2R)-2-hydroxypropanoyl]morpholin-2-yl}-5-methylimidazo[1,5-a]pyrazin-1-yl)-N-[4-(trifluoromethyl)pyridin-2-yl]benzamide] reads < 10 nM; that for `Nc1ncc(Cl)n2c([C@H]3CN(C(=O)C4(O)CC4)CCO3)nc(-c3ccc(C(=O)Nc4cc(C(F)(F)F)ccn4)cc3)c12` [Example 525, 4-(8-amino-5-chloro-3-{(2R)-4-[(1-hydroxycyclopropyl)carbonyl]morpholin-2-yl}imidazo[1,5-a]pyrazin-1-yl)-N-[4-(trifluoromethyl)pyridin-2-yl]benzamide], < 10 nM; that for `Nc1nccn2c([C@H]3CC[C@H](C(F)(F)F)N(CCO)C3)nc(-c3ccc(C(=O)Nc4cc(C(F)(F)F)ccn4)cc3)c12` [Example 437, 4-{8-amino-3-[(3S,6R)-1-(2-hydroxyethyl)-6-(trifluoromethyl)piperidin-3-yl]imidazo[1,5-a]pyrazin-1-yl}-N-[4-(trifluoromethyl)pyridin-2-yl]benzamide], < 10 nM. Regarding `CN1CC[C@@H](C(=O)N2CCC[C@@H](c3nc(-c4ccc(C(=O)Nc5cc(C(F)(F)F)ccn5)cc4)c4c(N)nccn34)C2)C1` [Example 348, 4-(8-amino-3-[(3R)-1-{[(3R)-1-methylpyrrolidin-3-yl]carbonyl}piperidin-3-yl]imidazo[1,5-a]pyrazin-1-yl}-N-[4-(trifluoromethyl)pyridin-2-yl]benzamide], the IC50 was < 10 nM.

For the molecule `CCC(=O)N1CCC[C@@H](c2nc(-c3ccc(C(=O)Nc4cc(C(F)(F)F)ccn4)cc3F)c3c(N)nccn23)C1` [Example 487, 4-{8-amino-3-[(3R)-1-propanoylpiperidin-3-yl]imidazo[1,5-a]pyrazin-1-yl}-3-fluoro-N-[4-(trifluoromethyl)pyridin-2-yl]benzamide], the IC50 was < 10 nM.
